ChEMBL document CHEMBL4145553, “Design, synthesis, and biological evaluation of novel amide and hydrazide based thioether analogs targeting Histone deacteylase (HDAC) enzymes” (Eur J Med Chem, 2018)

Legend:
Assay type in all cases: functional
[1] = tested on: HL-60(TB); experiment: Growth inhibition of human HL-60(TB) cells assessed as cell growth at 10^-8 M incubated for 48 hrs by sulforhodamine B assay relative to control; conditions: HL-60, 48 h, read-out: Activity
[2] = tested on: UACC-62; experiment: Growth inhibition of human UACC62 cells assessed as cell growth at 10^-8 M incubated for 48 hrs by sulforhodamine B assay relative to control; conditions: UACC-62, 48 h, read-out: Activity
[3] = tested on: ACHN; experiment: Growth inhibition of human ACHN cells assessed as cell growth at 10^-8 M incubated for 48 hrs by sulforhodamine B assay relative to control; conditions: read-out: Activity
[4] = tested on: DU-145; experiment: Growth inhibition of human DU145 cells assessed as cell growth at 10^-8 M incubated for 48 hrs by sulforhodamine B assay relative to control; conditions: DU-145, 48 h, read-out: Activity
[5] = tested on: Hs-578T; experiment: Growth inhibition of human Hs 578T cells assessed as cell growth at 10^-8 M incubated for 48 hrs by sulforhodamine B assay relative to control; conditions: read-out: Activity
[6] = tested on: NCI-H460; experiment: Growth inhibition of human NCI-H460 cells assessed as cell growth at 10^-7 M incubated for 48 hrs by sulforhodamine B assay relative to control; conditions: NCI-H460, 48 h, read-out: Activity
[7] = tested on: NCI-H522; experiment: Growth inhibition of human NCI-H522 cells assessed as cell growth at 10^-7 M incubated for 48 hrs by sulforhodamine B assay relative to control; conditions: NCI-H522, 48 h, read-out: Activity
[8] = tested on: 786-0; experiment: Growth inhibition of human 786-0 cells assessed as cell growth at 10^-7 M incubated for 48 hrs by sulforhodamine B assay relative to control; conditions: 786-0, 48 h, read-out: Activity
[9] = tested on: CAKI-1; experiment: Growth inhibition of human Caki1 cells assessed as cell growth at 10^-7 M incubated for 48 hrs by sulforhodamine B assay relative to control; conditions: CAKI-1, 48 h, read-out: Activity
[10] = tested on: UACC-257; experiment: Growth inhibition of human UACC257 cells assessed as cell growth at 10^-6 M incubated for 48 hrs by sulforhodamine B assay relative to control; conditions: UACC-257, 48 h, read-out: Activity
[11] = tested on: CAKI-1; experiment: Growth inhibition of human Caki1 cells assessed as cell growth at 10^-6 M incubated for 48 hrs by sulforhodamine B assay relative to control; conditions: CAKI-1, 48 h, read-out: Activity
[12] = tested on: RXF 393; experiment: Growth inhibition of human RXF393 cells assessed as cell growth at 10^-6 M incubated for 48 hrs by sulforhodamine B assay relative to control; conditions: RXF 393, 48 h, read-out: Activity
[13] = tested on: CCRF-CEM; experiment: Growth inhibition of human CCRF-CEM cells assessed as cell growth at 10^-5 M incubated for 48 hrs by sulforhodamine B assay relative to control; conditions: read-out: Activity
[14] = tested on: NCI-H23; experiment: Growth inhibition of human NCI-H23 cells assessed as cell growth at 10^-5 M incubated for 48 hrs by sulforhodamine B assay relative to control; conditions: NCI-H23, 48 h, read-out: Activity
[15] = tested on: NCI-H522; experiment: Growth inhibition of human NCI-H522 cells assessed as cell growth at 10^-5 M incubated for 48 hrs by sulforhodamine B assay relative to control; conditions: NCI-H522, 48 h, read-out: Activity
[16] = tested on: LOX IMVI; experiment: Growth inhibition of human LOXIMVI cells assessed as cell growth at 10^-5 M incubated for 48 hrs by sulforhodamine B assay relative to control; conditions: read-out: Activity
[17] = tested on: TK-10; experiment: Growth inhibition of human TK10 cells assessed as cell growth at 10^-5 M incubated for 48 hrs by sulforhodamine B assay relative to control; conditions: TK-10, 48 h, read-out: Activity
[18] = tested on: MDA-MB-468; experiment: Growth inhibition of human MDA-MB-468 cells assessed as cell growth at 10^-5 M incubated for 48 hrs by sulforhodamine B assay relative to control; conditions: MDA-MB-468, 48 h, read-out: Activity
[19] = tested on: COLO 205; experiment: Growth inhibition of human COLO205 cells assessed as cell growth at 10^-4 M incubated for 48 hrs by sulforhodamine B assay relative to control; conditions: COLO 205, 48 h, read-out: Activity
[20] = tested on: SNB-75; experiment: Growth inhibition of human SNB75 cells assessed as cell growth at 10^-4 M incubated for 48 hrs by sulforhodamine B assay relative to control; conditions: SNB-75, 48 h, read-out: Activity
[21] = tested on: MDA-MB-435; experiment: Growth inhibition of human MDA-MB-435 cells assessed as cell growth at 10^-4 M incubated for 48 hrs by sulforhodamine B assay relative to control; conditions: MDA-MB-435, 48 h, read-out: Activity
[22] = tested on: SK-MEL-2; experiment: Growth inhibition of human SK-MEL-2 cells assessed as cell growth at 10^-4 M incubated for 48 hrs by sulforhodamine B assay relative to control; conditions: SK-MEL-2, 48 h, read-out: Activity
[23] = tested on: OVCAR-8; experiment: Growth inhibition of human OVCAR8 cells assessed as cell growth at 10^-4 M incubated for 48 hrs by sulforhodamine B assay relative to control; conditions: OVCAR-8, 48 h, read-out: Activity
[24] = tested on: RXF 393; experiment: Growth inhibition of human RXF393 cells assessed as cell growth at 10^-4 M incubated for 48 hrs by sulforhodamine B assay relative to control; conditions: RXF 393, 48 h, read-out: Activity
[25] = tested on: MDA-MB-231; experiment: Growth inhibition of human MDA-MB-231 cells assessed as cell growth at 10^-4 M incubated for 48 hrs by sulforhodamine B assay relative to control; conditions: MDA-MB-231, 48 h, read-out: Activity
[26] = tested on: T47D; experiment: Growth inhibition of human T47D cells assessed as cell growth at 10^-4 M incubated for 48 hrs by sulforhodamine B assay relative to control; conditions: read-out: Activity
[27] = tested on: HL-60(TB); experiment: Growth inhibition of human HL-60(TB) cells incubated for 48 hrs by sulforhodamine B assay; conditions: HL-60, 48 h
[28] = tested on: LOX IMVI; experiment: Growth inhibition of human LOXIMVI cells incubated for 48 hrs by sulforhodamine B assay
[29] = tested on: SK-OV-3; experiment: Growth inhibition of human SKOV3 cells incubated for 48 hrs by sulforhodamine B assay; conditions: SK-OV-3, 48 h
[30] = tested on: MDA-MB-435; experiment: Induction of apoptosis in human MDA-MB-435 cells assessed as late apoptotic cells by propidium iodide/Annexin V staining based flow cytometry (reference value: 0.22%)
[31] = tested on: MDA-MB-435; experiment: Downregulation of HDAC2 mRNA expression in human MDA-MB-435 cells by qRT-PCR method relative to control
[32] = read-out: LC50 (the source's name)
[33] = read-out: pLC50 (the source's name) (converted)

CCS/C(Nc1ccccc1)=C(\C#N)C(=O)Nc1ccc(OC)cc1
growth at 0.01 µM [1]: 96%
growth at 0.01 µM [2]: 93%
growth at 0.01 µM [3]: 101%
growth at 0.01 µM [4]: 101%
growth at 0.01 µM [5]: 97%
growth at 0.1 µM [6]: 98%
growth at 0.1 µM [7]: 94%
growth at 0.1 µM [8]: 86%
growth at 0.1 µM [9]: 85%
growth at 1 µM [10]: 93%
growth at 1 µM [11]: 73%
growth at 1 µM [12]: 82%
growth at 10 µM [13]: 11%
growth at 10 µM [14]: 34%
growth at 10 µM [15]: -1%
growth at 10 µM [16]: 40%
growth at 10 µM [17]: 66%
growth at 10 µM [18]: -9%
growth at 100 µM [19]: -17%
growth at 100 µM [20]: -22%
growth at 100 µM [21]: -35%
growth at 100 µM [22]: 14%
growth at 100 µM [23]: 10%
growth at 100 µM [24]: -20%
growth at 100 µM [25]: -18%
growth at 100 µM [26]: 3%
GI50 ([27]; read-out: GI50): 2.87 µM
CC50 [27, 32]: > 100 µM
TGI ([27]; read-out: TGI): > 100 µM
GI50 ([27]; read-out: pGI50 (converted)): 2.88 µM
CC50 [27, 33]: > 100 µM
TGI ([27]; read-out: pTGI): > 100 µM
GI50 ([28]; read-out: GI50): 6.16 µM
CC50 [28, 32]: > 100 µM
TGI ([28]; read-out: TGI): > 100 µM
GI50 ([28]; read-out: pGI50 (converted)): 6.17 µM
CC50 [28, 33]: > 100 µM
TGI ([28]; read-out: pTGI): > 100 µM
GI50 ([29]; read-out: GI50): 3.28 µM
CC50 [29, 32]: > 100 µM
TGI ([29]; read-out: TGI): 50.2 µM
GI50 ([29]; read-out: pGI50 (converted)): 3.31 µM
CC50 [29, 33]: > 100 µM
TGI ([29]; read-out: pTGI (converted)): 50.1 µM
Activity [30]: 6.38%
fold change (FC) [31]: <=10

CCS/C(Nc1ccccc1)=C(\C#N)C(=O)N/N=C\c1ccc(Cl)cc1Cl
growth at 0.01 µM [1]: 97%
growth at 0.01 µM [2]: 92%
growth at 0.01 µM [3]: 102%
growth at 0.01 µM [4]: 105%
growth at 0.01 µM [5]: 96%
growth at 0.1 µM [6]: 98%
growth at 0.1 µM [7]: 82%
growth at 0.1 µM [8]: 88%
growth at 0.1 µM [9]: 84%
growth at 1 µM [10]: 92%
growth at 1 µM [11]: 67%
growth at 1 µM [12]: 75%
growth at 10 µM [13]: 16%
growth at 10 µM [14]: 41%
growth at 10 µM [15]: -2%
growth at 10 µM [16]: 39%
growth at 10 µM [17]: 50%
growth at 10 µM [18]: -3%
growth at 100 µM [19]: 3%
growth at 100 µM [20]: -17%
growth at 100 µM [21]: -52%
growth at 100 µM [22]: -9%
growth at 100 µM [23]: 20%
growth at 100 µM [24]: -22%
growth at 100 µM [25]: 9%
growth at 100 µM [26]: 17%
GI50 ([27]; read-out: GI50): 3.2 µM
CC50 [27, 32]: > 100 µM
TGI ([27]; read-out: TGI): > 100 µM
GI50 ([27]; read-out: pGI50 (converted)): 3.24 µM
CC50 [27, 33]: > 100 µM
TGI ([27]; read-out: pTGI): > 100 µM
GI50 ([28]; read-out: GI50): 5.88 µM
CC50 [28, 32]: > 100 µM
TGI ([28]; read-out: TGI): > 100 µM
GI50 ([28]; read-out: pGI50 (converted)): 5.89 µM
CC50 [28, 33]: > 100 µM
TGI ([28]; read-out: pTGI): > 100 µM
GI50 ([29]; read-out: GI50): 3.72 µM
CC50 [29, 32]: > 100 µM
TGI ([29]; read-out: TGI): > 100 µM
GI50 ([29]; read-out: pGI50 (converted)): 3.72 µM
CC50 [29, 33]: > 100 µM
TGI ([29]; read-out: pTGI (converted)): > 100 µM
Activity [30]: 3.47%
fold change (FC) [31]: <=10
